The source of these data is ChEMBL document CHEMBL4420076, “Amylin and calcitonin receptor agonist” (2017).

The structures appear in SMILES notation. Numbered stars: 1 amine (or outer) side, 2 acyl side, 3 side chain; on linkers, the order of the positions; unused ones are H or OH. Peptide text beside a SMILES is read from it. * marks the point of attachment. C20 diacid = O=C(O)CCCCCCCCCCCCCCCCCCC(=O)*; γGlu = O=C(O)[C@H](CCC(=O)[*:2])N[*:1]

Data set [1] is described as follows: Solubility in 100 mM bistrispropane buffer at pH 8.0 incubated for 18 hrs by UPLC analysis. Type of data set: physicochemical.
Data set [2] has as its target T1, Calcitonin receptor (Homo sapiens, UniProt P30988).
T1 sequence (P30988 whole entry): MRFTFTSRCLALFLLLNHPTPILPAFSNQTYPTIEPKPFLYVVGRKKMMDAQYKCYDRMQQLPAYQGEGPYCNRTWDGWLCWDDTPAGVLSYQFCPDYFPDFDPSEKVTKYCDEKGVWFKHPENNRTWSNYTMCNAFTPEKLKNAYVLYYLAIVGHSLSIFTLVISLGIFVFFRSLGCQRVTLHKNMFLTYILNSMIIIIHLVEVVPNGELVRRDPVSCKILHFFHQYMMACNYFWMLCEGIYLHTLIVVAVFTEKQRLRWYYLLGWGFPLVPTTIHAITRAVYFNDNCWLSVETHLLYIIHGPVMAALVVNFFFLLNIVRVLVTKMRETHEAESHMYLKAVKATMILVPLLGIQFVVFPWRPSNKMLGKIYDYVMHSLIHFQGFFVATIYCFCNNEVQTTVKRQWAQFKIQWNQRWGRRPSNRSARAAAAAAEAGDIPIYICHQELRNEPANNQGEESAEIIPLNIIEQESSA
Description: Agonist activity at human calcitonin receptor expressed in BHK570 cells assessed as increase in intracellular cAMP concentration incubated for 3 hrs in presence of 10% FBS by CRE luciferase reporter gene assay. Type of data set: functional, cell-based.

For data set [3], the target named is T2, Amylin receptor AMY3; CALCR/RAMP3 (Homo sapiens, UniProt O60896+P30988).
T2 sequence (P30988 whole entry): T1 sequence (P30988 whole entry)
T2 sequence (O60896 whole entry): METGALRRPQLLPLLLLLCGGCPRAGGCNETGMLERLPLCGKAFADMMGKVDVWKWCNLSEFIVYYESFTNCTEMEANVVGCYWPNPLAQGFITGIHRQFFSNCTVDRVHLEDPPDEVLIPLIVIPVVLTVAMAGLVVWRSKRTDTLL
The data set can be described thus: Agonist activity at human amylin receptor expressed in BHK570 cells co-expressing RAMP3 assessed as increase in intracellular cAMP concentration incubated for 3 hrs in presence of 10% FBS by CRE luciferase reporter gene assay. Type of data set: functional, cell-based.

The nature of data set [4]: Solubility in 100 mM bistrispropane buffer at pH 7.5 incubated for 18 hrs by UPLC analysis. Type of data set: physicochemical.
A short description of data set [5]: Solubility in 100 mM glycylglycine buffer at pH 3.0 incubated for 18 hrs by UPLC analysis. The format is physicochemical.
Data set [6] in a line: Solubility in 100 mM bistrispropane buffer at pH 6.5 incubated for 18 hrs by UPLC analysis. The format is physicochemical.
Data set [7] deals with Rattus norvegicus. Description: Reduction in food intake in Sprague-Dawley rat at 3 nmol/kg measured 24 to 48 hrs post dose relative to control. Type of data set: functional. The arrangement: scale not given: the % may be the effect or the level left.
The target in data set [8] is T1, Calcitonin receptor. The data set can be described thus: Agonist activity at human calcitonin receptor expressed in BHK570 cells assessed as increase in intracellular cAMP concentration incubated for 3 hrs in absence of albumin by CRE luciferase reporter gene assay. Type of data set: functional, cell-based.
Data set [9] deals with Rattus norvegicus. The data set can be described thus: Reduction in food intake in Sprague-Dawley rat at 3 nmol/kg measured 0 to 24 hrs post dose relative to control. Type of data set: functional. The arrangement: scale not given: the % may be the effect or the level left.
Data set [10] can be described thus: Solubility in 100 mM glycylglycine buffer at pH 4.0 incubated for 18 hrs by UPLC analysis. The format is physicochemical.
Data set [11] in a line: Solubility in 100 mM bistrispropane buffer at pH 7.0 incubated for 18 hrs by UPLC analysis. The format is physicochemical.
A short description of data set [12]: Stability in pH 7.5 buffer assessed as lag time for fibril formation at 1 uM by Thioflavin T based fluorescence assay. The format is physicochemical. Conditions: pH 7.5, 1 µM.
For data set [13], the target named is T2, Amylin receptor AMY3; CALCR/RAMP3. Description: Agonist activity at human amylin receptor expressed in BHK570 cells co-expressing RAMP3 assessed as increase in intracellular cAMP concentration incubated for 3 hrs in absence of albumin by CRE luciferase reporter gene assay. Type of data set: functional, cell-based.
A short description of data set [14]: Solubility in 100 mM bistrispropane buffer at pH 6.0 incubated for 18 hrs by UPLC analysis. Type of data set: physicochemical.
Data set [15] can be described thus: Stability in pH 7.5 buffer assessed as compound recovery at 1 uM by Thioflavin T based fluorescence assay. Type of data set: physicochemical. As to conditions: read-out: Drug recovery.
The nature of data set [16]: Solubility in 100 mM glycylglycine buffer at pH 5.0 incubated for 18 hrs by UPLC analysis. Type of data set: physicochemical.

Consider `CC(C)C[C@H](NC(=O)[C@H](C)NC(=O)[C@H](C)NC(=O)[C@@H](NC(=O)[C@H](CO)NC(=O)[C@H](CC(C)C)NC(=O)[C@H](CCC(=O)O)NC(=O)[C@H](CO)NC(=O)[C@H](C)NC(=O)CC[C@H](NC(=O)CCCCCCCCCCCCCCCCCCC(=O)O)C(=O)O)[C@@H](C)O)C(=O)NCC(=O)N[C@@H](CCCNC(=N)N)C(=O)N[C@@H](CC(C)C)C(=O)N[C@@H](CO)C(=O)N[C@@H](C)C(=O)N[C@@H](CCC(=O)O)C(=O)N[C@@H](CC(C)C)C(=O)N[C@@H](Cc1cnc[nH]1)C(=O)N[C@@H](CCC(=O)O)C(=O)N[C@@H](CC(C)C)C(=O)N[C@@H](C)C(=O)N[C@H](C(=O)N[C@@H](CC(C)C)C(=O)N1CCC[C@H]1C(=O)N[C@@H](CCCNC(=N)N)C(=O)N[C@H](C(=O)N[C@@H](CCC(=O)O)C(=O)N[C@H](C(=O)NCC(=O)N[C@@H](CO)C(=O)NCC(=O)N[C@@H](CO)C(=O)N1CCC[C@H]1C(N)=O)[C@@H](C)O)[C@@H](C)O)[C@@H](C)O` ({C20 diacid-γGlu}-ASELSTAALGRLSAELHELATLPRTETGSGSP-NH2), for which the solubility at 18 h in data set [1], in data set [4], in [5], in data set [6], in data set [10] and in [11] was no less than 200 µM each time. Also, the solubility at 18 h in [14] and in data set [16] was no less than 200 µM each time. Also, the EC50 at Calcitonin receptor [2] is 29 pM; in data set [3], 51 pM; on Calcitonin receptor [8] it was 14 pM; in data set [13], 13 pM. Further, the Activity is given as 79% in the data set with Rattus norvegicus [7] and 49% in the data set with Rattus norvegicus [9]. Also, the Time in data set [12] was greater than 45 h. Further, in data set [15], the remaining at 1 µM worked out at 100%.
As for `CC(C)C[C@H](NC(=O)[C@H](C)NC(=O)[C@H](C)NC(=O)[C@@H](NC(=O)[C@H](CO)NC(=O)[C@H](CC(C)C)NC(=O)[C@H](CCC(=O)O)NC(=O)[C@H](CO)NC(=O)[C@H](C)NC(=O)CC[C@H](NC(=O)CCCCCCCCCCCCCCCCCCC(=O)O)C(=O)O)[C@@H](C)O)C(=O)NCC(=O)N[C@@H](CCCNC(=N)N)C(=O)N[C@@H](CC(C)C)C(=O)N[C@@H](CO)C(=O)N[C@@H](C)C(=O)N[C@@H](CCC(=O)O)C(=O)N[C@@H](CC(C)C)C(=O)N[C@@H](Cc1cnc[nH]1)C(=O)N[C@@H](CCC(=O)O)C(=O)N[C@@H](CC(C)C)C(=O)N[C@@H](C)C(=O)N[C@H](C(=O)N[C@@H](Cc1ccc(O)cc1)C(=O)N1CCC[C@H]1C(=O)N[C@@H](CCCNC(=N)N)C(=O)N[C@H](C(=O)N[C@@H](CCC(=O)O)C(=O)N[C@H](C(=O)NCC(=O)N[C@@H](CO)C(=O)NCC(=O)N[C@@H](CO)C(=O)N[C@@H](Cc1ccc(O)cc1)C(N)=O)[C@@H](C)O)[C@@H](C)O)[C@@H](C)O` ({C20 diacid-γGlu}-ASELSTAALGRLSAELHELATYPRTETGSGSY-NH2), the solubility at 18 h in [1], in data set [4], in [5], in [6], in data set [10] and in [11] was no less than 200 µM each time. Also, in data set [14], the solubility at 18 h is no less than 200 µM. For the same compound, the half-maximal effective concentration (EC50) is 71 pM at Calcitonin receptor [2], 93 pM in data set [3], 29 pM at Calcitonin receptor [8] and 32 pM in [13]. Besides, the Activity with Rattus norvegicus [7] is 56%; in the data set with Rattus norvegicus [9], 49%. For the same compound, the Time in data set [12] is greater than 45 h. For the same compound, the remaining at 1 µM in data set [15] was 100%.
On to `CC(C)C[C@H](NC(=O)CNC(=O)[C@H](CO)NC(=O)[C@H](C)NC(=O)CC[C@H](NC(=O)CCCCCCCCCCCCCCCCCCC(=O)O)C(=O)O)C(=O)N[C@@H](CO)C(=O)N[C@H](C(=O)N[C@@H](C)C(=O)N[C@H](C(=O)N[C@@H](CC(C)C)C(=O)NCC(=O)N[C@@H](CCCNC(=N)N)C(=O)N[C@@H](CC(C)C)C(=O)N[C@@H](CO)C(=O)N[C@@H](C)C(=O)N[C@@H](CCC(=O)O)C(=O)N[C@@H](CC(C)C)C(=O)N[C@@H](Cc1cnc[nH]1)C(=O)N[C@@H](CCC(=O)O)C(=O)N[C@@H](CC(C)C)C(=O)N[C@@H](C)C(=O)N[C@H](C(=O)N[C@@H](Cc1ccc(O)cc1)C(=O)N1CCC[C@H]1C(=O)N[C@@H](CCCNC(=N)N)C(=O)N[C@H](C(=O)N[C@@H](CCC(=O)O)C(=O)N[C@H](C(=O)NCC(=O)N[C@@H](CO)C(=O)NCC(=O)N[C@H](C(=O)N1CCC[C@H]1C(N)=O)[C@@H](C)O)[C@@H](C)O)[C@@H](C)O)[C@@H](C)O)C(C)C)[C@@H](C)O` ({C20 diacid-γGlu}-ASGLSTAVLGRLSAELHELATYPRTETGSGTP-NH2), for which the solubility at 18 h in [1], in [4], in [5], in [6], in data set [10] and in data set [11] was no less than 200 µM each time. Besides, the solubility at 18 h in data set [14] and in [16] was no less than 200 µM throughout. The EC50 is 35 pM on Calcitonin receptor [2], 66 pM in data set [3], 28 pM at Calcitonin receptor [8] and 47 pM in [13]. The values for the Activity in the data set with Rattus norvegicus [7] and in the data set on Rattus norvegicus [9] were 57% and 52%, respectively. Also, the Time in data set [12] was greater than 45 h. Further, the remaining at 1 µM in data set [15] stood at 100%.
For the compound `CC(C)C[C@H](NC(=O)CNC(=O)[C@H](CO)NC(=O)[C@H](C)NC(=O)CC[C@H](NC(=O)CCCCCCCCCCCCCCCCCCC(=O)O)C(=O)O)C(=O)N[C@@H](CO)C(=O)N[C@H](C(=O)N[C@@H](C)C(=O)N[C@H](C(=O)N[C@@H](CC(C)C)C(=O)NCC(=O)N[C@@H](CCCNC(=N)N)C(=O)N[C@@H](CC(C)C)C(=O)N[C@@H](CO)C(=O)N[C@@H](CCC(N)=O)C(=O)N[C@@H](CCC(=O)O)C(=O)N[C@@H](CC(C)C)C(=O)N[C@@H](Cc1cnc[nH]1)C(=O)N[C@@H](CCC(=O)O)C(=O)N[C@@H](CC(C)C)C(=O)N[C@@H](CCC(N)=O)C(=O)N[C@H](C(=O)N[C@@H](Cc1ccc(O)cc1)C(=O)N1CCC[C@H]1C(=O)N1CCC[C@H]1C(=O)N[C@H](C(=O)N[C@@H](CCC(=O)O)C(=O)N[C@H](C(=O)NCC(=O)N[C@@H](CO)C(=O)N[C@@H](CCC(N)=O)C(=O)N[C@H](C(=O)N[C@@H](Cc1ccc(O)cc1)C(N)=O)[C@@H](C)O)[C@@H](C)O)[C@@H](C)O)[C@@H](C)O)C(C)C)[C@@H](C)O` ({C20 diacid-γGlu}-ASGLSTAVLGRLSQELHELQTYPPTETGSQTY-NH2), the solubility at 18 h in [1], in [4], in [5], in data set [6], in data set [11] and in data set [14] was no less than 200 µM in each case. Also, the solubility at 18 h in data set [16] was no less than 200 µM. The EC50 was 72 pM at Calcitonin receptor [2], 152 pM in data set [3] and 57 pM at Calcitonin receptor [8]. The Activity in the data set on Rattus norvegicus [7] worked out at 5%; with Rattus norvegicus [9], 9%. For the same compound, the Time in data set [12] was greater than 45 h. Besides, the remaining at 1 µM in [15] worked out at 100%.
